Test results as given in PubChem BioAssay (NCI).
“And” between values parts separate entries of the source, which are not always exact repeats. Equal entries are not always repeated.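 96-well plates; 48 h exposure; 5 concentrations. Endpoints by linear interpolation between flanking doses. Not reached: highest tested concentration assigned. GI50 is the concentration that inhibits growth by half. At the TGI there is no net growth.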

How the values were obtained:
Experiment in all cases: DTP human tumour cell line panel, 48 h
NCI-H460 lung = system: NCI-H460 lung
CCRF-CEM leukemia = system: CCRF-CEM leukemia
MDA-MB-231 breast = system: MDA-MB-231 breast
HL-60(TB) leukemia = system: HL-60(TB) leukemia
M14 melanoma = system: M14 melanoma
HCC-2998 colon = system: HCC-2998 colon
SF-539 CNS = system: SF-539 CNS
SK-OV-3 ovarian = system: SK-OV-3 ovarian
SNB-75 CNS = system: SNB-75 CNS
MALME-3M melanoma = system: MALME-3M melanoma

Compound | GI50 (NCI-H460 lung) | TGI (NCI-H460 lung) | GI50 (CCRF-CEM leukemia) [µM] | TGI (CCRF-CEM leukemia) [µM] | GI50 (MDA-MB-231 breast) | TGI (MDA-MB-231 breast) | GI50 (HL-60(TB) leukemia) | TGI (HL-60(TB) leukemia) | GI50 (M14 melanoma) | TGI (M14 melanoma) | GI50 (HCC-2998 colon) | TGI (HCC-2998 colon) | GI50 (SF-539 CNS) [µM] | TGI (SF-539 CNS) [µM] | GI50 (SK-OV-3 ovarian) | TGI (SK-OV-3 ovarian) | GI50 (SNB-75 CNS) [µM] | TGI (SNB-75 CNS) [µM] | GI50 (MALME-3M melanoma) [µM] | TGI (MALME-3M melanoma) [µM]
COc1cc(/C=C2\C[C@H]3[C@@H]4CC=C5C[C@@H](OC(C)=O)CC[C@]5(C)[C@H]4CC[C@]3(C)[C@H]2OC(C)=O)ccc1OCCCn1ccnc1 | 9.2 µM | 22.9 µM | 11.3 | 40.9 | 8.2 µM | 16.6 µM | 12.7 µM | 34.1 µM | 8.85 µM | 16.6 µM | 9.47 µM | 17.7 µM | 4.72 | 12.5 | – | – | – | – | – | –
CCCN1C(=O)/C(=C/c2ccc(O)cc2)SC1=Nc1ccccc1 | 15.2 µM | 29.9 µM | > 100 | > 100 | 16 µM | 36.6 µM | > 100 µM | > 100 µM | 48.7 µM | > 100 µM | 22.9 µM | 47.4 µM | – | – | 18 µM | 40.8 µM | – | – | – | –
Fc1ccc(Nc2ccc3cc(OCCCN4CCOCC4)ccc3n2)cc1F | 2.93 µM | 8.74 µM | 7.93 | > 100 | 1.96 µM | 4.68 µM | – | – | – | – | 2.22 µM | 4.42 µM | 3.22 | 18.7 | 8.24 µM | > 100 µM | 2.44 | 17.7 | 2.25 | 7.74
C/C=C/C/C=C/CCC(=O)C1OC1C(N)=O (configuration not stated) | – | 25.4 µM | – | 98.3 | – | 31.1 µM | – | – | – | 29.2 µM | – | 31.1 µM | – | 30.6 | – | 81.8 µM | – | 27.8 | – | 32.9
O=c1[nH]cnc2c1nnn2[C@@H]1O[C@H](CO)[C@@H](O)[C@H]1O | 2.51 µM | > 100 µM | 1.34 | > 100 | 7.68 µM | > 100 µM | 1.56 µM | 39.5 µM | 3.54 µM | 41.9 µM | 4.33 µM | > 100 µM | 7.66 | > 100 | 0.868 µM | > 100 µM | 3.22 | > 100 | – | –
N#Cc1c(SCc2ccccc2)nc2[nH]c(=S)[nH]c(=S)c2c1-c1ccco1 | 32.3 µM | > 100 µM | – | – | 39.9 µM | 71.3 µM | 40.6 µM | > 100 µM | > 100 µM | > 100 µM | – | – | 31.7 | > 100 | > 100 µM | > 100 µM | > 100 | > 100 | – | –
CCC(=O)Nc1ccc2c(c1)CN1C(=O)c3ccccc3C1=N2 | > 100 µM | > 100 µM | – | – | > 100 µM | > 100 µM | > 100 µM | > 100 µM | > 100 µM | > 100 µM | > 100 µM | > 100 µM | > 100 | > 100 | > 100 µM | > 100 µM | > 100 | > 100 | > 100 | > 100
Cc1cc2c(cc1C)[n+](=O)c(C(=O)c1cccs1)c(C(F)(F)F)n2[O-] | 1.19 µM and 1.86 µM | 6.35 µM and 16.9 µM | – | – | 1.1 µM and 1.67 µM | 8.54 µM and 8 µM | 1.96 µM and 2.54 µM | 11 µM and 28.8 µM | 14.6 µM and 13.5 µM | 50 µM and > 100 µM | 6.86 µM and 2.08 µM | 20.9 µM and 5.24 µM | 1.39 | 7.69 | 7.95 µM and 10.3 µM | 50 µM and 49 µM | 1.02 | 18.7 | – | –
c1cncc(-c2cc(-c3cc(-c4cccnc4)n[nH]3)[nH]n2)c1 | – | > 100 µM | – | – | – | > 100 µM | – | > 100 µM | – | > 100 µM | – | > 100 µM | – | > 100 | – | > 100 µM | – | > 100 | – | > 100
Cc1cc(S(=O)(=O)/N=C(\N)n2nc(C)c(C)c2C)c(SCc2ccccc2)cc1Cl | 6.57 µM | > 100 µM | 4.49 | > 100 | > 100 µM | > 100 µM | – | – | > 100 µM | > 100 µM | > 100 µM | > 100 µM | > 100 | > 100 | > 100 µM | > 100 µM | > 100 | > 100 | > 100 | > 100
CC(=O)NC(Cc1c[nH]c2ccccc12)C(=O)O (configuration not stated) | – | > 100 µM | – | > 100 | – | > 100 µM | – | > 100 µM | – | > 100 µM | – | – | – | – | – | > 100 µM | – | – | – | > 100
CCOC(=O)c1ccc(C(O)CC(=O)OC(C)(C)C)[nH]1 (configuration not stated) | 35.9 µM | > 100 µM | 29.6 | 88 | 13 µM | > 100 µM | – | – | 27 µM | 67.3 µM | 33 µM | > 100 µM | – | – | 32.1 µM | > 100 µM | 37.2 | > 100 | 0.692 | 24.8
COc1cc(/C=C/C(=O)CC(=O)/C=C/c2ccc(OC(=O)CCNC34CC5CC(CC(C5)C3)C4)c(OC)c2)ccc1OC(=O)CCNC12CC3CC(CC(C3)C1)C2 | 2.5 µM | 6.33 µM | – | – | 3.97 µM | 25.3 µM | 2.27 µM | 9.27 µM | 3.48 µM | 14.1 µM | 1.93 µM | 4.37 µM | 2.09 | 4.81 | 6.75 µM | 27.2 µM | 4.85 | 22.5 | 5.28 | 17.9
